How the values were obtained:
Assay type in all cases: cell-based
[1] = system: latent HIV-1 infection in bulk population of latently infected JLTRG cells; assay: Reactivation of latent HIV-1 in a bulk population of latently infected cells, flow cytometry; conditions: optimal concentration of each compound, day 57 bulk population, 100,000 viable cells counted
Method: (A) Jurkat cells were infected with an EGFP expressing, replication incompetent reporter virus and the level of productive HIV-1 infection at each indicated time-point was directly assessed by flow cytometric analysis for EGFP expression (untreated; black circles). Levels of initial non-productive and later on latent HIV-1 infection was determined 24 hours following TNF-α stimulation (black squares). The results represent the mean ±S.D. of three independent experiments.
a) Quantification of the HIV-1 reactivating capabilities of test compounds. Following infection, HIV-1 integrates into the cellular genome. Integration is random, although HIV-1 preferentially integrates into euchromatin structures. Latency development can be thus influenced by a multitude of factors that alter gene expression or DNA structure, such as divergent gene expression patterns or the cell cycle stage at the time point of viral integration. Although the reporter cell lines are representative for the majority of latently infected cells and reliably identify most reactivating agents during the screening effort, they can not allow quantification of the capability of the individual compounds to reactivate HIV-1 infection from a diverse population of latently infected cells. To account for the influence that the side of integration of a latent virus can have on a compounds ability to reactivate the virus, a bulk population of latently infected cells (FIG. 7) was established. Following infection of JLTRG cells with HIV-1 NL43, a rapid increase of the level of infection can be observed. On day 3, an average 27% of the cells were productively infected. […] Until day 15, the percentage of productively infected cells rapidly declined to 3% of the overall cell population. At this time point, an additional 5% of the cells were non-productively infected. […] Since 1×10^6 cells were initially infected, and virus mediated inhibition of cell proliferation influences the relative level of infection over time can be excluded, it can be calculated that the latently infected cell population should consist of […] individual latently infected cells. This bulk population of cells allows quantification of the capability of the respective compounds to reactivate latent HIV-1. […] Each compound was titrated over a two-log concentration range to allow for optimal reactivation. The results for the optimal concentration of each compound are depicted in FIG. 7B. […] TNF-α (10 ng/ml) reactivated latent HIV-1 infection in 5% of the cells, whereas the DNA histone deacetylase inhibitors trichostatin A (TSA) and sodium butyrate (NaBu) reactivated latent HIV-1 infection in only 3% or 2.5% of the cells, respectively. To achieve an accurate estimate of the differences in the capability of different agents to reactivate HIV-1 infection it is important to run a sufficiently high number of cells. For this flow cytometry based analysis, 100,000 cells viable per sample were counted.

[2] = system: HIV-1 Tat / HIV-1 transcription in J89GFP cells; assay: Suppression of TNF-α mediated HIV-1 reactivation in J89GFP cells by Tat inhibitor; conditions: 10 μM
Method: EGFP expression following TNF-α (1 ng/ml) mediated reactivation of latent HIV-1 infection in J89GFP cells in the presence or absence of Ro24-7429 (10 μM). Following stimulation, area (A+B) represents the total amount of virus produced over a two day period of time, whereas area B represents the amount of virus produced in the presence of Ro24-7429. Results represent the mean ±S.D. of three independent experiments.
The latently HIV-1 infected reporter T cell line J89GFP (Kutsch et al., 2002) was pretreated with the respective compound and then stimulated with various concentrations of TNF-α. As reactivation of latent HIV-1 is dependent on Tat activity, a sufficiently potent Tat inhibitor would suppress HIV-1 reactivation as indicated by […] in EGFP fluorescence. […] Levels of reactivation with respect to the percentage of HIV-1 positive cells, as well as the EGFP MCF intensity were identical. Whereas EGFP expression in TNF-α treated J89GFP in the absence of Ro24-7429 continued to increase until 96 h post stimulation, EGFP MCF peaked after 48 h, reaching 50% of the maximal EGFP MCF seen in the absence of Ro24-7429, and the slowly declined again (FIG. 14). The observed increase of EGFP fluorescence in TNF-α treated J89GFP cells can be described as an invasion kinetics of the first order, whereas the kinetics of EGFP expression following TNF-α mediated reactivation of HIV-1 in the presence of Ro24-7429 can be best described by a Bateman function, that describes onset and elimination of HIV-1 expression. Again, integration of the equation describing each curve allows for the determination of the relative amount of virus being produced in the critical 2 days time frame. Area (A+B) represents the amount of virus produced following reactivation, and Area B represents the amount of virus produced in the presence of Ro24-7429.

[3] = system: CD28 mediated HIV-1 reactivation in J89GFP cells; assay: Inhibition of activating anti-CD28 antibody (5D10) mediated HIV-1 reactivation in J89GFP cells; conditions: J89GFP pretreated, then stimulated with 5D10; inhibitors 1 μM
Method: The results are representative for five independent experiments. […] (C) J89GFP cells were pretreated for two hours with the specific ERK-inhibitor U0126 (control: U0124) or the specific p38-inhibitor SB202190 (control: SB202474) and then stimulated with activating anti-CD28 antibody 5D10 (1 μg/ml). Level of reactivation was measured as %-EGFP^+ cells using flow cytometry. Results represent the mean ±S.D. of three independent experiments.

[4] = system: JEGFP cells; conditions: 10,000 JEGFP cells/well, 384-well plate, increasing amounts of compound
Method: JEGFP cells were seeded at a cell density of 1×10^4 cells/well into a 384-well plate and left untreated (Control) or treated with a low concentration of daunorubicin (0.0001 μg/ml). EGFP fluorescence as a measure of cell proliferation was then determined over a period of four days.
Influence of altered cell proliferation, cell viability and compound auto-fluorescence on EGFP fluorescence intensity. […] For example, compounds that have fluorochrome characteristics in the same excitation and emission range as EGFP can unspecifically increase the fluorescence signal and can cause false positive hits. On the other hand, too high concentrations of compounds that can reactivate latent HIV-1 infection, but within the chosen concentration range, either inhibit cell proliferation or decrease cell viability can result in false negative hits. […] Compounds that unspecifically increase EGFP expression in the latently infected LWI cells due to their fluorochrome characteristics also increase EGFP fluorescence in these cells, and can be detected as false positive hits. […] As JEGFP cells divide every 24 h and EGFP fluorescence intensity, when measured by plate based fluorometry, directly correlates with the cell density (FIG. 5), any influence of the tested compound on cell proliferation or cell viability can be immediately indicated by a drop in EGFP fluorescence. […]

CCCC(=O)[O-].[Na+] [NaBu, sodium butyrate]
cells in which latent HIV-1 infection was reactivated [1]: 2.5%

CNC1=Nc2ccc(Cl)cc2C(c2ccc[nH]2)=NC1 [Ro24-7429]
influence on the level of HIV-1 expression during the first 24 h ([2]; TNF-α 1 ng/ml, first 24 h): had no influence on the level of HIV-1 expression
inhibition of virus production ([2]; TNF-α 1 ng/ml, initial 2 days period, from integration of EGFP curves): 20%
peak EGFP MCF relative to maximal EGFP MCF in the absence of inhibitor ([2]; TNF-α 1 ng/ml, peak after 48 h): 50%
suppression of reactivation of latent HIV-1 ([2]; in the presence of 1 ng/ml TNF-α): not capable of suppressing reactivation of latent HIV-1 infection

Oc1ccc(-c2nc(-c3ccncc3)c(-c3ccc(F)cc3)[nH]2)cc1 [SB202190]
effect on HIV-1 reactivation by activating anti-CD28 antibody [3]: efficiently abrogated the activating effect of the antibody and blocked HIV-1 reactivation

CC(/C=C/C(=O)NO)=C\[C@@H](C)C(=O)c1ccc(N(C)C)cc1 [TSA, trichostatin A]
cells in which latent HIV-1 infection was reactivated [1]: 3%

N#CC(=C(/N)Sc1ccccc1N)/C(C#N)=C(\N)Sc1ccccc1N [U0126]
effect on HIV-1 reactivation by activating anti-CD28 antibody [3]: efficiently abrogated the activating effect of the antibody and blocked HIV-1 reactivation

COc1cccc2c1C(=O)c1c(O)c3c(c(O)c1C2=O)C[C@@](O)(C(C)=O)C[C@@H]3O[C@H]1C[C@H](N)[C@H](O)[C@H](C)O1 [daunorubicin]
EGFP expression as measure of cell proliferation/viability [4]: sharp drop in EGFP expression

CC(=O)O[C@@]12C[C@@H](C)[C@@]3(O)[C@@H](C=C(CO)C[C@]4(O)C(=O)C(C)=C[C@@H]34)[C@@H]1C2(C)C [prostratin]
cells in which latent HIV-1 infection was reactivated [1]: 6%

Source: patent US20080118494A1, “Compositions For Detection Of Latent Hiv Reactivation And Methods Of Using The Same” (priority 2004, published 2008)
